Source: US20130065226A1, “METHOD OF DETERMINING DOSE AND ADMINISTRATION OF STATIN” (TOHOKU UNIVERSITY, priority 2011, published 2013)
Like-named read-outs stand apart in the source and are kept apart here. Where a SMILES comes first, the peptide text is derived from it. The star is where a group is joined. Cbz = O=C(OCc1ccccc1)*

Assays:
[1] = test system: SmgGDS; assay: SmgGDS expression in HUVEC after 24 h drug treatment (western blot); assay type: cell-based, human; details: for inhibition of the statin-induced increase in SmgGDS expression level: FPP or GGPP 10 μM co-treated with atorvastatin or pitavastatin, 24 h; for SmgGDS expression level in HUVEC: 24 h treatment, atorvastatin 10 and 30 μM, pitavastatin 1 and 10 μM
[2] = Body weight, blood pressure and plasma lipid profiles in AngII-infused mice; assay type: in vivo; details: ATOR 10 mpk, PRA 50 mpk; for Systolic blood pressure / HDL cholesterol / LDL-cholesterol / Total cholesterol / Triglyceride: 2 weeks; for Systolic blood pressure / Body weight: mean ± s.e.m.; for HDL cholesterol / LDL-cholesterol / Total cholesterol / Triglyceride: plasma; for Body weight: gavage daily 2 weeks
Protocol: (§1) An AngII-induced cardiovascular hypertrophy model in mice was produced according to Yagi et al.'s literature (Yagi, S. et al., Circ. Res. 102, 68-76 (2008)). Statins were administered to mice by gavage every day for 2 weeks. After 2 weeks of sustained AngII administration by means of osmotic pump, the present inventors observed the left ventricular function and measured the weight of the heart of each mouse by means of an ultrasound imaging system. […] After a 2 weeks washout period, the subjects were switched to take an alternative medicine for additional 2 weeks.
The present inventors conducted all mouse experiments in accordance with experimental protocols that were approved by the Animal Care and Use Committee of the Tohoku University Graduate School of Medicine. The present inventors used an AngII-induced cardiovascular hypertrophy model (see Yagi, S . et al . , Circ. Res. 102. 68-76 (2008)) to assess the effect of SmgGDS deficiency on the pleiotropic effects of low-dose statins. The present inventors infused 2.0 mg kg^−1 day^−1 or saline for 2 weeks in 10-week-old male SmgGDS^+/+ littermate control mice and SmgGDS^+/− mice. The inventors dissolved AngII in sterile saline and infused it via osmotic mini-pumps (Alzet model 2002, Alze Corp.). The inventors anesthetized the animals with isofluorane. Then, the inventors prepared subcutaneous pockets in the isofluorane-anesthetized mice and placed the pumps into the subcutaneous pockets through a small incision in the back that was closed by suturing. Either statin or vehicle was administered to both the AngII-infused and saline-infused mouse by gavage every day for 2 weeks . All incision sites rapidly healed without any infection. Systolic blood pressure was measured by using a non-invasive tail-cuff system (MK-2000, Muromachi) 2 weeks after the pump implantation. Plasma lipids (triglycerides, total cholesterol, LDL-cholesterol and HDL-cholesterol) were analyzed with the high-performance liquid chromatography system of Skylight Biotech. Echocardiographic analysis was performed by using an ultrasound imaging system (Vevo 2100, VisualSonic Inc.). The mice were shaved and M-mode images of the left ventricle were recorded while the heart rate was kept at about 500 bpm.

[3] = Plasma concentration of statins in mice; assay type: in vivo; details: male, mouse, oral, 24 hours after last of 2-week gavage, atorvastatin 10 mg/kg/day, pravastatin 50 mg/kg/day, read-out: Plasma concentration of statin
Protocol: Furthermore, the present inventors administrated each statin by gavage for 2 weeks from the start of AngII administration ([…], 10 mg/kg/day or pravastatin, 50 mg/kg/day) to the each group of mouse. The present inventors measured plasma concentration of statins 24 hours after the last administration (Table 3).

[4] = Human study: plasma lipid profiles, glucose, insulin and HOMA-IR; assay type: in vivo; details: for HDL-cholesterol, Change (%) / LDL-cholesterol, Change (%) / MDA-LDL, Change (%) / RLP cholesterol, Change (%) / Total cholesterol, Change (%) / Triglyceride, Change (%) / HDL-cholesterol, After 2 weeks / LDL-cholesterol, After 2 weeks / MDA-LDL, After 2 weeks / RLP cholesterol, After 2 weeks / Triglyceride, After 2 weeks / Total cholesterol, After 2 weeks: healthy volunteers; for HDL-cholesterol, Change (%) / LDL-cholesterol, Change (%) / MDA-LDL, Change (%) / RLP cholesterol, Change (%) / Total cholesterol, Change (%) / Triglyceride, Change (%): 20 mg day^−1, after 2 weeks vs baseline; for HDL-cholesterol, After 2 weeks / LDL-cholesterol, After 2 weeks / MDA-LDL, After 2 weeks / RLP cholesterol, After 2 weeks / Triglyceride, After 2 weeks / Total cholesterol, After 2 weeks: fasting; for Total cholesterol, After 2 weeks: mean ± s.e.m., n = 20
Text: (§2) The exclusion criteria included abnormal liver or kidney dysfunction before and during the statin administration and treatment.

[5] = test system: SmgGDS; assay: Human study: SmgGDS expression in circulating leukocytes (western blot); assay type: in vivo; details: for increase of SmgGDS in leukocytes, average of the 20 volunteers: 20 mg, 2 weeks, vs before administration
Text: as §2

[6] = test system: SmgGDS; assay: Protein expression in HUVEC subcellular fractions: SmgGDS; assay type: cell-based, human; details: HUVEC cytoplasm fraction, 24 h; atorvastatin 10 μM, pitavastatin 1 μM
[7] = test system: Racl; assay: Racl expression in control or SmgGDS siRNA-transfected HUVEC; assay type: cell-based, human; details: control siRNA-transfected HUVEC, statin 24 h
Protocol: as §1
(§3) Multiple siRNAs duplexes specific to SmgGDS were purchased from Qiagen. A functional non-targeting siRNA that was bioinformatically designed by Qiagen was used as a control. Either 10 nM control siRNA or 10 nM siRNA that was specific to SmgGDS was transfected into HUVEC with HiPerFect transfection Reagent (Qiagen). After 72 hour post-transfection, the cells were analyzed by either Wester blot or ROS analysis.

[8] = test system: AngII-induced production of ROS in HUVEC; assay: Reactive oxygen species analysis (DCF staining) in siRNA-transfected HUVEC; assay type: cell-based, human; details: atorvastatin 1 μM or pitavastatin 0.1 μM 24 h, then 1 μM AngII 3 h
Protocol: as §1, §3
The present inventors treated HUVEC with AngII (1μM, Wako) at 37° C. in 5% CO2 for 3 hours, washed them with PBS and stained them with 2,7-dichlorofluoroscein diacetate (H2DCF-DA) (5 μM, Cayman) at 37° C. for 30 minutes to visualize the ROS production as green fluorescence (488 nm) through a fluorescence microscope (BIOREVO, Keyence). The relative fluorescence intensity was measured by means of BZ-II analyzer (Keyence) software.

[9] = test system: Racl; details: normal and healthy volunteers, 20 mg day^−1 for 1 week; cited from earlier work
[10] = test system: RhoA/Rho-kinase; details: normal and healthy volunteers, 20 mg day^−1 for 1 week; cited from earlier work
[11] = test system: Racl; assay: Protein expression in HUVEC subcellular fractions: Racl (with or without proteasome inhibitor MG-132)
[12] = control siRNA-transfected HUVEC

CC(C)=CCC/C(C)=C/CC/C(C)=C/CC/C(C)=C/COP(=O)(O)OP(=O)(O)O [GGPP, geranylgeranyl pyrophosphate]
inhibition of the statin-induced increase in SmgGDS expression level [1]: neither FPP nor GGPP inhibited the increase in SmgGDS expression level by statins

CC[C@H](C)C(=O)O[C@H]1C[C@H](O)C=C2C=C[C@H](C)[C@H](CC[C@@H](O)C[C@@H](O)CC(=O)O)[C@H]21 [pravastatin]
Systolic blood pressure ([2]; AngII-infused SmgGDS+/+ mice): 141.0 ± 7.3 mmHg | Systolic blood pressure ([2]; AngII-infused SmgGDS+/− mice): 146.7 ± 6.6 mmHg | HDL cholesterol ([2]; AngII-infused SmgGDS+/+ mice): 88.0 ± 4.5 mg/dL | LDL-cholesterol ([2]; AngII-infused SmgGDS+/+ mice): 16.1 ± 2.3 mg/dL | Total cholesterol ([2]; AngII-infused SmgGDS+/+ mice): 111.2 ± 6.8 mg/dL | Triglyceride ([2]; AngII-infused SmgGDS+/+ mice): 47.3 ± 10.9 mg/dL | HDL cholesterol ([2]; AngII-infused SmgGDS+/− mice): 94.0 ± 4.1 mg/dL | LDL-cholesterol ([2]; AngII-infused SmgGDS+/− mice): 16.1 ± 1.6 mg/dL | Total cholesterol ([2]; AngII-infused SmgGDS+/− mice): 116.7 ± 5.7 mg/dL | Triglyceride ([2]; AngII-infused SmgGDS+/− mice): 56.6 ± 7.3 mg/dL | concentration at 24 h ([3]; AngII-infused SmgGDS+/+ mice): 0.43 ± 0.08 ng/mL | concentration at 24 h ([3]; AngII-infused SmgGDS+/− mice): 0.64 ± 0.24 ng/mL | HDL-cholesterol, Change (%) [4]: 5% | LDL-cholesterol, Change (%) [4]: −24% | MDA-LDL, Change (%) [4]: −25% | RLP cholesterol, Change (%) [4]: −22% | Total cholesterol, Change (%) [4]: −14% | Triglyceride, Change (%) [4]: −16% | HDL-cholesterol, After 2 weeks ([4]; 20 mg day^−1 oral, 2 weeks): 61 ± 2.8 mg/dL | LDL-cholesterol, After 2 weeks ([4]; 20 mg day^−1 oral, 2 weeks): 88 ± 4.0 mg/dL | MDA-LDL, After 2 weeks ([4]; 20 mg day^−1 oral, 2 weeks): 85 ± 6.7 U l^−1 | RLP cholesterol, After 2 weeks ([4]; 20 mg day^−1 oral, 2 weeks): 3.2 ± 0.3 mg/dL | Triglyceride, After 2 weeks ([4]; 20 mg day^−1 oral, 2 weeks): 87 ± 9.1 mg/dL | Total cholesterol, After 2 weeks ([4]; 20 mg day^−1 oral, 2 weeks): 165 ± 4.5 mg/dL | increase of SmgGDS in leukocytes, average of the 20 volunteers ([5]; healthy volunteers): about 1.4 times

O=c1[nH]ccc2c(S(=O)(=O)N3CCCNCC3)cccc12 [HF, hydroxyfasudil]
SmgGDS expression level in HUVEC [1]: did not increase the SmgGDS expression level

CC(C)c1c(C(=O)Nc2ccccc2)c(-c2ccccc2)c(-c2ccc(F)cc2)n1CC[C@@H](O)C[C@@H](O)CC(=O)O [atorvastatin]
SmgGDS expression level in HUVEC [1]: increased SmgGDS expression in HUVEC in a concentration-dependent manner | cytoplasmic SmgGDS level [6]: increased the cytoplasmic SmgGDS level | Racl expression level in whole cells [7]: decreased Racl expression level in whole cells | AngII-induced production of ROS [8, 12]: decreased the AngII-induced production of ROS | Systolic blood pressure ([2]; AngII-infused SmgGDS+/+ mice): 146.7 ± 7.6 mmHg | Body weight ([2]; AngII-infused SmgGDS+/+ mice): 27.5 ± 1.1 g | Systolic blood pressure ([2]; AngII-infused SmgGDS+/− mice): 140.4 ± 4.4 mmHg | Body weight ([2]; AngII-infused SmgGDS+/− mice): 26.9 ± 0.5 g | HDL cholesterol ([2]; AngII-infused SmgGDS+/+ mice): 76.3 ± 6.8 mg/dL | LDL-cholesterol ([2]; AngII-infused SmgGDS+/+ mice): 13.7 ± 1.6 mg/dL | Total cholesterol ([2]; AngII-infused SmgGDS+/+ mice): 98.3 ± 7.7 mg/dL | Triglyceride ([2]; AngII-infused SmgGDS+/+ mice): 67.0 ± 11.0 mg/dL | HDL cholesterol ([2]; AngII-infused SmgGDS+/− mice): 81.9 ± 4.8 mg/dL | LDL-cholesterol ([2]; AngII-infused SmgGDS+/− mice): 13.6 ± 1.8 mg/dL | Total cholesterol ([2]; AngII-infused SmgGDS+/− mice): 102.3 ± 6.9 mg/dL | Triglyceride ([2]; AngII-infused SmgGDS+/− mice): 81.4 ± 20.1 mg/dL | HDL-cholesterol, Change (%) [4]: 0% | LDL-cholesterol, Change (%) [4]: −46% | MDA-LDL, Change (%) [4]: −38% | RLP cholesterol, Change (%) [4]: −35% | Total cholesterol, Change (%) [4]: −30% | Triglyceride, Change (%) [4]: −33% | HDL-cholesterol, After 2 weeks ([4]; 20 mg day^−1 oral, 2 weeks): 60 ± 2.7 mg/dL | LDL-cholesterol, After 2 weeks ([4]; 20 mg day^−1 oral, 2 weeks): 64 ± 3.4 mg/dL | MDA-LDL, After 2 weeks ([4]; 20 mg day^−1 oral, 2 weeks): 73 ± 4.5 U l^−1 | RLP cholesterol, After 2 weeks ([4]; 20 mg day^−1 oral, 2 weeks): 2.6 ± 0.1 mg/dL | Triglyceride, After 2 weeks ([4]; 20 mg day^−1 oral, 2 weeks): 73 ± 6.5 mg/dL | Total cholesterol, After 2 weeks ([4]; 20 mg day^−1 oral, 2 weeks): 138 ± 3.8 mg/dL | concentration level of total cholesterol and of LDL-cholesterol in blood ([4]; normal healthy adult volunteers, 20 mg day^−1 oral, 2 weeks): reduced the concentration level of total cholesterol and that of LDL-cholesterol in blood | SmgGDS expression in leukocytes in circulating blood ([5]; healthy volunteers, 20 mg day^−1, 2 weeks, vs pre-administration level, n=20): significantly increased | increase of SmgGDS in leukocytes, average of the 20 volunteers ([5]; healthy volunteers): about 1.5 times | increase in SmgGDS ([5]; the 4 volunteers without increase at 10 mg pravastatin, after switching from pravastatin to atorvastatin): 3 volunteers out of the above 4 volunteers showed an increase of SmgGDS | Racl activity in circulating leucocytes [9]: significantly inhibit Racl activity | RhoA/Rho-kinase activity in circulating leucocytes [10]: without suppressing the RhoA/Rho-kinase activity

Cn1cc(C2=C(c3ccc(Cl)cc3Cl)C(=O)NC2=O)c2ccccc21 [SB216763]
SmgGDS expression level in HUVEC [1]: increased the SmgGDS expression level in a concentration-dependent manner

CC(C)C[C@@H](C=O)NC(=O)[C@H](CC(C)C)NC(=O)[C@H](CC(C)C)NC(=O)OCc1ccccc1 [MG-132] (Cbz-Leu-Leu-Leu-aldehyde)
effect of MG-132 on statin-triggered decrease of Racl expression in the nucleus ([11]; HUVEC co-treated with atorvastatin and MG-132): inhibited the decreased Racl expression level triggered by atorvastatin in the nucleus

O=C(O)C[C@H](O)C[C@H](O)/C=C/c1c(C2CC2)nc2ccccc2c1-c1ccc(F)cc1 [pitavastatin]
SmgGDS expression level in HUVEC [1]: increased SmgGDS expression in HUVEC in a concentration-dependent manner | cytoplasmic SmgGDS level [6]: increased the cytoplasmic SmgGDS level | AngII-induced production of ROS ([8]; SmgGDS siRNA-transfected HUVEC): The same results were also obtained | AngII-induced production of ROS [8, 12]: The same results were also obtained | intra-nuclear Racl level ([11]; HUVEC nucleus fraction, 24 h, atorvastatin 10 μM, pitavastatin 1 μM): decreased the intra-nuclear Racl level

CC(C)=CCC/C(C)=C/CC/C(C)=C/COP(=O)(O)OP(=O)(O)O [FPP, farnesyl pyrophosphate]
inhibition of the statin-induced increase in SmgGDS expression level [1]: neither FPP nor GGPP inhibited the increase in SmgGDS expression level by statins
